Converted amounts (≈) assume the structure as drawn. “Also recorded” adds a separate entry of the source. Read-outs that look alike come from different tables or passages of the source.
What was measured:
[1] = system: methicillin-resistant S. aureus (FPR3757); test: MIC against clinical MRSA strain FPR3757 in Mueller-Hinton broth (CLSI); format: cell-based, Staphylococcus aureus; conditions: for MIC: MRSA clinical strain FPR3757, Mueller-Hinton broth, CLSI guidelines, complete inhibition of observable growth
Source text: (§1) The first set of compounds evaluated were analogs at the C-7 and C-8 positions of the initial quinolone hit DNAC-2 since the other HTS hits identified (data not shown) were substituted at these positions (Table 1). Applicants first explored modification at the C-7 position with a small series of electron-donating and withdrawing substituents. […] However, analogs containing electron donating groups at C-7 including ethyl 7, benzyloxy 8, methoxy 9 and methylthio 10 are weakly active displaying MICs of 320-640 μg/mL indicating electron-donating substituents at C-7 are poorly tolerated. […] The C-8 position was evaluated with trifluoromethyl 4 and trifluoromethoxy 5 containing the optimal C-7 substituents. Both 4 and 5 are equipotent to the corresponding C-7 analogs 2 and 3 indicating some flexibility of the quinolone scaffold.

[2] = system: S. aureus MW2; test: Antimicrobial susceptibility MIC, S. aureus MW2; format: cell-based; conditions: Staphylococcus aureus
Source text: as §1
(§2) The compounds maintain activity against Staphylococcus epidermidis; however, 31, 111 and 123 all lose considerable potency against Enterococcus faecalis and Enterococcus faecium, which contribute heavily, along with MRSA, to healthcare-associated infections.

[3] = system: S. aureus NIH04008; test: Antimicrobial susceptibility MIC, S. aureus NIH04008; format: cell-based; conditions: Staphylococcus aureus
Source text: as §1, §2

[4] = system: E. faecalis SMC374; test: Antimicrobial susceptibility MIC, E. faecalis SMC374; format: cell-based; conditions: Enterococcus faecalis; E. faecalis strain SMC374; read-out: MIC
Source text: as §1, §2

[5] = system: E. faecium ATCC19579; test: Antimicrobial susceptibility MIC, E. faecium ATCC19579; format: cell-based; conditions: Enterococcus faecium; E. faecium strain ATCC19579; read-out: MIC
Source text: as §1, §2

[6] = system: E. coli DHMC-1; test: Antimicrobial susceptibility MIC, E. coli DHMC-1; format: cell-based; conditions: Escherichia coli, DHMC1; E. coli strain DHMC-1
Source text: as §1, §2

[7] = system: K. pneumonia 7117; test: Antimicrobial susceptibility MIC, K. pneumonia 7117; format: cell-based; conditions: Klebsiella pneumoniae; K. pneumonia strain 7117
Source text: as §1, §2

[8] = system: E. cloacae ND-21; test: Antimicrobial susceptibility MIC, E. cloacae ND-21; format: cell-based; conditions: Enterobacter cloacae, ND21; E. cloacae strain ND-21
Source text: as §1, §2

[9] = system: C. albicans; test: Antimicrobial susceptibility, C. albicans; format: cell-based, Candida albicans; conditions: highest concentration tested
Source text: as §2

[10] = system: clinical methicillin-resistant Staphylococcus aureus (MRSA) isolates; test: MIC against panel of MRSA / staphylococcal strains (text summaries); format: cell-based
Source text: as §1, §2

[11] = system: MRSA clinical strain S. aureus FPR3757; test: Minimum bactericidal concentration (MBC) against S. aureus FPR3757; format: cell-based
[12] = system: S. aureus (MRSA); test: In vitro time-kill assay; format: cell-based; conditions: 1× MIC, initial inoculum 10^5 CFU, plating over six hours
Protocol: FIG. 4 illustrates in vitro time-kill analysis of methicillin resistant Staphylococcus aureus (MRSA). Bacterial killing was monitored by measuring the colony forming unit (CFU) for six hours when treated with compounds 22, 31, 117, and 123 at 1× the minimum inhibitory concentration (MIC) of each compound. The CFU at each time point was determined by plating and then compared to a dimethyl sulfoxide (DMSO) control.
While the MIC data confirmed that these compounds were at least bacteriostatic, Applicants wanted to test for bactericidal properties of both the aminoquinoline and aminoquinolone scaffolds. […] The kinetics of bacterial killing was assessed in vitro using time-kill assays by incubating compounds at 1× their MIC with an initial inoculum of 10^5 colony forming units (CFU) of S. aureus and removing aliquots at various time points to determine the residual CFU by plating.

[13] = system: Staphylococcus simulans; test: Macromolecular synthesis assays (radiolabeled precursor incorporation); format: cell-based; conditions: for inhibition of DNA, RNA, protein and cell-wall synthesis: 0.5×, 1× and 5× MIC; for inhibition of macromolecular processes at 5× MIC: 5× the MIC, DNA, RNA, protein, cell wall precursor incorporation
Source text: FIG. 5 illustrates macromolecular synthesis assays (representative data with 123). Time-course for inhibition of incorporation of radiolabeled precursors [^3H]-L-isoleucine (protein), [^3H]-thymidine (DNA), [^3H]-uridine (RNA), and [^3H]-glucosamine (cell wall) in S. simulans by 123 at 0.5×, 1× and 5×MIC. Data are expressed as the percentage of inhibition relative to the DMSO only negative control. The positive control antibiotics denoted by closed circles were used at 10× MIC. Data represent the mean±standard deviation (SD) of triplicate experiments.
Classical macromolecular synthesis assays were performed to provide insight on the putative mechanism of action of the most promising quinoline 31 and quinolone 123 candidates. Disruption of bacterial membranes is not only rapid, but interferes with all major metabolic activities in the cell and is thus easily distinguished by macromolecular synthesis assays. […] The control antibiotics ciprofloxacin, rifampicin, vancomycin and tetracycline were included as inhibitors of DNA, RNA, cell wall, and protein synthesis, respectively. The cells were quenched at various time points with 10% trichloroacetic acid (TCA), filtered, washed and the amount of precursor incorporation was quantified by scintillation counting.

[14] = system: S. aureus (strain USA300); test: Transmission electron microscopy of treated cells; format: cell-based; conditions: 1× MIC, after 10 minutes, vs DMSO
Protocol: FIGS. 6A, 6B and 6C illustrate transmission electron microscopy (TEM) imaging of MRSA USA300 treated with compounds 22 and 31.
Transmission electron microscopy (TEM) and fluorescence microscopy (FM) allowed Applicants to directly observe the effects of the novel 4-aminoquinolines […] 5-aminoquinolones on the cell morphology of staphylococci.
(§3) These cellular defects were not seen in any of the control cells treated with DMSO. Fluorescent microscopy was performed on a S. aureus (strain COL) strain after treatment with either DMSO, 31 or 123 for 30 minutes followed by staining with FM 4-64 (red membrane stain), bodipy-vancomycin (Van-FL, green stain), and Hoechst (blue DNA stain).

[15] = system: S. aureus (strain COL); test: Fluorescent microscopy of membrane, cell wall and DNA; format: cell-based; conditions: 1× MIC, 30 minutes, vs DMSO
Protocol: FIGS. 7A and 7B illustrate fluorescent microscopy (FM) analysis of the membrane, cell wall, and DNA in MRSA. FM of COL MRSA strain treated with compound 123 (FIG. 7B, bottom row) at 1×MIC and DMSO (FIG. 7A, top row) for 30 minutes followed by staining with FM-64 (far left column, 0.5 μg/mL), VanFL (second column, 1 μg/mL), and Hoechst (third column, 1 μg/mL) for 5 minutes and washed with 1× phosphate buffered saline (PBS) before imaging (fourth column, overlay).
as §3

[16] = system: sheep erythrocytes; test: in vitro; format: cell-based; conditions: sheep, 32 μg/mL
Protocol: (§4) FIG. 8 illustrates percent hemolysis analysis of sheep erythrocytes. Concentration-dependent hemolysis was measured by monitoring the optical density (OD)540 of PBS-washed sheep erythrocytes. Complete hemolysis (100%) was confirmed by treatment of erythrocytes with Triton X-100. Data points represent the mean±SD of triplicate experiments.
(§5) The macromolecular synthesis assay, TEM, and FM experiments were all consistent with membrane disruption. […] The high membrane selectivity of the 5-aminoquinolin-4-ones in this assay is impressive and is in accordance with the observed therapeutic index (CC50/MIC).

[17] = system: S. aureus COL; test: Antimicrobial susceptibility MIC, S. aureus COL; format: cell-based; conditions: Staphylococcus aureus; S. aureus strain COL
Source text: as §1, §2

[18] = system: S. aureus N325; test: Antimicrobial susceptibility MIC, S. aureus N325; format: cell-based; conditions: Staphylococcus aureus; S. aureus strain N325
Source text: as §1, §2

[19] = system: S. aureus NRS71; test: Antimicrobial susceptibility MIC, S. aureus NRS71; format: cell-based; conditions: Staphylococcus aureus; S. aureus strain NRS71
Source text: as §1, §2

[20] = system: S. epidermidis NIH04003; test: Antimicrobial susceptibility MIC, S. epidermidis NIH04003; format: cell-based; conditions: Staphylococcus epidermidis; S. epidermidis strain NIH04003
Source text: as §1, §2

[21] = system: E. faecalis DHMC #1; test: Antimicrobial susceptibility MIC, E. faecalis DHMC #1; format: cell-based; conditions: Enterococcus faecalis; E. faecalis strain DHMC #1
Source text: as §1, §2

[22] = system: E. faecium DHMC #1; test: Antimicrobial susceptibility MIC, E. faecium DHMC #1; format: cell-based; conditions: Enterococcus faecium; E. faecium strain DHMC #1
Source text: as §1, §2

[23] = system: erythrocyte membranes (versus S. aureus membranes); test: in vitro; format: cell-based, sheep; conditions: sheep; read-out: selectivity for S. aureus membranes over erythrocyte membranes
Protocol: as §4, §5

[24] = Solubility; format: physicochemical
[25] = system: S. aureus membranes (versus erythrocyte membranes); test: in vitro; format: cell-based, sheep; conditions: sheep
Protocol: as §4, §5

[26] = system: MRSA; conditions: HTS hit, previously reported by Applicants; cited from earlier work
[27] = system: membrane of gram-positive bacteria; conditions: previously reported; cited from earlier work
[28] = system: eukaryotic membranes; conditions: cited from earlier work
[29] = Staphylococcus aureus, MRSA, read-out: MIC
[30] = six S. aureus strains of Table 9, read-out: MIC towards all six S. aureus strains
[31] = S. aureus strain MW2, read-out: MIC
[32] = S. aureus strain NIH04008, read-out: MIC

FC(F)(F)c1ccc(Nc2cc(C(F)(F)F)nc3cc(C(F)(F)F)ccc23)nc1 [Compound 31]
fold loss of potency (MIC) relative to the comparator ([1]; MRSA FPR3757 MIC ratio): 4 fold | MIC [1, 29]: 0.25 µg/mL (≈ 0.588 µM) | MIC ([2]; MW2): 0.125 µg/mL (≈ 0.294 µM) | MIC ([3]; NIH04008): 0.125 µg/mL (≈ 0.294 µM) | MIC [4]: 2 µg/mL (≈ 4.7 µM) | MIC [5]: 0.25 to 1 µg/mL (≈ 0.588 to 2.35 µM) | MIC [6]: > 64 µg/mL | MIC [7]: > 64 µg/mL | MIC [8]: > 64 µg/mL | MIC against C. albicans as multiple of MIC [9]: >16× × MIC | MIC [10, 30]: 0.125 to 0.25 µg/mL (≈ 0.294 to 0.588 µM) | MBC relative to MIC [11]: MBCs equal to their MIC values | time-kill: CFU reduction [12]: reduced the CFU below the limit of detection at four to six hours | inhibition of DNA, RNA, protein and cell-wall synthesis [13]: concentration-dependent inhibition of DNA, RNA, protein and cell-wall synthesis | inhibition of macromolecular processes at 5× MIC [13]: completely inhibited all macromolecular processes | cell morphology in TEM images [14]: cross-wall-septum formation with reduced splitting; also recorded: mesosome-like membrane inclusions | DNA and cell wall staining (Hoechst, Van-FL) [15]: little or no change compared to the DMSO control | membrane staining (FM 4-64) [15]: membrane defects | hemolysis [16]: None of the compounds except 76, displayed any hemolysis

O=c1cc(C(F)(F)F)[nH]c2cc(C(F)(F)F)cc(Nc3ccc(C(F)(F)F)cn3)c12 [Compound 111]
MIC [1, 29]: < 0.06 µg/mL | MIC [2, 31]: < 0.06 µg/mL | MIC [17]: < 0.06 µg/mL | MIC [18]: < 0.06 µg/mL | MIC [19]: < 0.06 µg/mL | MIC [3, 32]: < 0.06 µg/mL | MIC [20]: < 0.06 µg/mL | MIC [21]: 2 µg/mL (≈ 4.53 µM) | MIC [22]: 2 µg/mL (≈ 4.53 µM) | MIC [10, 30]: < 0.06 µg/mL | selectivity ratio [23]: > 500 | solubility [24]: low solubility

O=c1cc(C(F)(F)F)[nH]c2cc(F)cc(Nc3ccc(C(F)(F)F)cn3)c12 [Compound 123]
MIC [1]: <0.06 µg/mL | MIC [1, 29]: < 0.06 µg/mL | MIC [2, 31]: < 0.06 µg/mL | MIC [17]: < 0.06 µg/mL | MIC [18]: < 0.06 µg/mL | MIC [19]: < 0.06 µg/mL | MIC [3, 32]: < 0.06 µg/mL | MIC [20]: < 0.06 µg/mL | MIC [21]: 8 µg/mL (≈ 20.4 µM) | MIC [22]: 8 µg/mL (≈ 20.4 µM) | MIC ([10]; read-out: MIC against numerous clinical MRSA isolates): ≤ 0.06 µg/mL | MIC [10, 30]: < 0.06 µg/mL | MBC relative to MIC [11]: MBCs equal to their MIC values | time-kill: CFU reduction [12]: reduced the CFU below the limit of detection at four to six hours | inhibition of DNA, RNA, protein and cell-wall synthesis [13]: concentration-dependent inhibition of DNA, RNA, protein and cell-wall synthesis | inhibition of macromolecular processes at 5× MIC [13]: completely inhibited all macromolecular processes | cell morphology in TEM images [14]: cross-wall-septum formation with reduced splitting; also recorded: mesosome-like membrane inclusions | DNA and cell wall staining (Hoechst, Van-FL) [15]: little or no change compared to the DMSO control | membrane staining (FM 4-64) [15]: membrane defects | selectivity ratio [25]: > 500 | hemolysis [16]: None of the compounds except 76, displayed any hemolysis

O=c1cc(C(F)(F)F)[nH]c2c(OC(F)(F)F)cccc12 [DNAC-2]
MIC against MRSA [26]: 8 µg/mL (≈ 26.9 µM) | membrane effect on gram-positive bacteria [27]: partial membrane depolarization | toxicity towards eukaryotic membranes [28]: no toxicity towards eukaryotic membranes

Reference: US20220274927A1, “MEMBRANE-ACTIVE ANTI-BACTERIAL COMPOUNDS AND USES THEREOF” (Trustees of Dartmouth College, priority 2019, published 2022)
